In patent US7947854B2, “Bis-cationic compounds and use thereof” (The University of Sydney, priority 2003, dated 2011):
Like-named read-outs stand apart in the source and are kept apart here.

Assays:
erythrocyte = format: cell-based; conditions: 37° C., 1 h
Method: Human blood was collected in 10 mL Vacutainer tubes containing potassium-EDTA as anticoagulant. The blood from each vacutainer was transferred to a 50 mL centrifuge tube and the cells washed three times with calcium- and magnesium-free phosphate buffered saline (PBS) (Gibco) by centrifugation at 2000×g for 15 min. The third supernatant was clear and colourless. Cells were stored in PBS for up to two weeks. The cell suspension in PBS (0.5 mL) was mixed with a stock solution of test substance (0.5 mL) at the appropriate concentration (final erythrocyte concentration of approx. 0.5×10^9 per mL). The mixtures were incubated at 37° C. for 1 h with gentle shaking, then centrifuged at 2000×g for 10 min. The supernatant was diluted 10-fold with PBS and the optical density measured at 540 nm. The values for 0% and 100% lysis were determined by incubating cells with PBS or 0.1% Triton X-100 (in water), respectively. Assays were carried out in triplicate.

[1] = tested on: Candida albicans ATCC 10231; assay: Antifungal susceptibility testing, microdilution MIC; format: cell-based
Method: (§1) Antifungal susceptibility testing. The antifingal activity of the compounds was measured by a standard microdilution method. […] The fungal strains tested included Cryptococcus neoformans H99, Cryptococcus neoformans ATCC 90112 and Candida albicans ATCC 10231. All tests were performed in duplicate.
(§2) A range of cationic compounds were assayed for antifungal activity in a standardised serial dilution sensitivity test against C. neoformans ([…]) and C. Albicans (ATCC 10231).

[2] = tested on: Cryptococcus neoformans ATCC 90112; assay: as above; format: cell-based
Method: as §1, §2

[3] = tested on: secreted phospholipase B (LPL/LPTA activities); assay: Radiometric assay, secreted LPL and LPTA activities (Lyso assay); format: biochemical, Cryptococcus neoformans H99
Method: (§3) Fungal isolates and media. […] Isolate H99 was kindly supplied by Dr. Gary Cox (Duke University Medical Center, Durham, N.C., USA), and subcultured onto Sabouraud dextrose agar (SDA) at 30° C.
(§4) Preparation of supernatants containing secreted phospholipase activities. Isolate H99 was grown to confluence on SDA in 16 cm diameter Petri dishes for 72 h at 30° C. in air. Cells scraped from 10-20 dishes were washed sequentially with isotonic saline and imidazole buffer (10 mM imidazole, 2 mM CaCl2, 2 mM Mg Cl2, 56 mM D-Glucose, made up in isotonic saline, pH 5.5), resuspended in a volume of this buffer of about 10% of the cell volume, and incubated for 24 h at 37° C. The cell-free supernatant was separated by centrifugation as previously described and stored at −70° C.
Secreted LPL and LPTA activities were measured simultaneously in a reaction mixture containing 1-[^14C]palmitoyl lyso-PC (25,000 dpm) and carrier lyso-PC (final concentration 200 μM) in assay buffer. The reaction time was […] with 1 μg of total protein and LPL activity was measured by the rate of loss of 1-[^14C]palmitoyl lyso-PC with release of radiolabelled fatty acids. LPTA activity was estimated from the rate of formation of radiolabelled PC.
(§5) All reactions were terminated by adding 0.5 mL of chloroform:methanol (2:1 v/v). The reaction products were extracted by the method as disclosed in Bligh, E. C. and W. J. Dyer. 1959 ‘A rapid method of total lipid extraction and purification.’ Can. J. Biochem. Physiol. 37:911-917, separated by TLC and quantified as previously described. In the case of PLC activity, the TLC plates were developed in petroleum ether (BP 60-80° C.): diethyl ether: acetic acid (90:15:1, v/v/v) instead of chloroform:methanol:water (65:25:4, v/v/v).
(§6) Preparation of inhibitors and use in assays. The following compounds were tested (for structures, see FIG. 2): compound 1, 1,12-bis(tributylphosphonium)dodecane dibromide (Fluka AG, Buchs, Switzerland); compound 2, 1,10-bis(tributylammonium)-decane dibromide; compound 3, 1,12-bis(tributylammonium)do-decane dibromide (both synthesised in-house); compound 4, 1,10-bis(trimethylammonium)decane dibromide [“decamethonium”] (Sigma, St. Louis Mo., USA). All compounds were prepared as stock solutions of 700 μM in assay buffer containing 5 mM EDTA, which was then diluted serially with buffer to obtain solutions of 70, 7, 0.7 and 0.07 μM. In each assay, 45 μL of these solutions was used, and the final volume of 125 μL was made up of substrate, enzyme and buffer. The radiometric assay was carried out as above. Inhibition was calculated as the percent of substrates (DPPC or Lyso-PC) remaining in the case of PLB and LPL activities, or of DPPC produced, in the case of the LPTA activity. The amounts converted, or produced, in the inhibitor-free control were normalised to 100%, and the inhibition calculated against it. All assays were done in triplicate.
(§7) Under these conditions only PLB, LPL and LPTA activities (both secreted and cell-associated) were measured. Initially, compounds deemed to be potential inhibitors were assayed at 25 and 250 μM. Those showing some inhibition were then also assayed at 2.5 and 0.25 μM.

[4] = tested on: secreted phospholipase B (PLB activity); assay: Radiometric assay, secreted PLB activity; format: biochemical, Cryptococcus neoformans H99
Method: as §3, §4
Radiometric assay method for phospholipases. Enzyme activities were measured as described previously in a final volume of 125 μL at 37° C. For the determination of secreted PLB activity, carrier dipalmitoyl phosphatidylcholine (DPPC, final concentration 800 μM) and 1,2-di[1-^14C] palmitoyl phosphatidylcholine (20,000 dpm) were dried under nitrogen and suspended in 125 mM imidazole acetate buffer (assay buffer, pH 4.0) by sonication using a Branson 450 sonifier. The reaction time was 22 min, using 1 μg total protein and PLB activity was determined by the rate of decrease of the radiolabelled PC substrate, with appearance of the label in free fatty acid. This assay also simultaneously allows for the determination of phospholipase A, C and D activities. These activities were measured by the appearance of radiolabel from PC in Lyso PC, diacylglycerol and phosphatidic acid, respectively.
as §5, §6, §7

[5] = Candida albicans, ATCC10231, Table 7, read-out: MIC (μM) C. alb. (10231)
[6] = Cryptococcus neoformans, ATCC90112, Table 7, read-out: MIC (μM) Crypto. (ATCC 90112)
[7] = Table 7, read-out: MIC (μM) C. alb. (10231)
[8] = Table 7, read-out: MIC (μM) Crypto. (ATCC 90112)

Structure (SMILES)	MIC [1, 5]	Lyso assay (% inhibition) LPL ([3]; 25 μM)	Lyso assay (% inhibition) LPTA ([3]; 25 μM)	Lyso assay (% inhibition) LPL ([3]; 250 μM)	Lyso assay (% inhibition) LPTA ([3]; 250 μM)	PLB assay (% inhibition) ([4]; 25 μM)	PLB assay (% inhibition) ([4]; 250 μM)	MIC [1, 7]	MIC [2, 8]	also measured
CCCCCCCCCCCCCCCC[N+](CCCC)(CCCC)CCCC	1.4 µM									Haemolytic assay (%) (erythrocyte; 3.5 μM): 2.5%; Haemolytic assay (%) (erythrocyte; 35 μM): 4%; Haemolytic assay (%) (erythrocyte; 88 μM): 19%; Haemolytic assay (%) (erythrocyte; 175 μM): 75%; Haemolytic assay (%) (erythrocyte; 350 μM): 100%
CCCC[N+](CCCC)(CCCC)CCCCCCCCCCC[N+](CCCC)(CCCC)CCCC [1,11-Bis-(tributylammonium)undecane dichloride]	44 µM									MIC [2, 6]: 22 µM
C[N+]1(CCCCCCCCCCCC[N+]2(C)CCOCC2)CCOCC1 [1,12-Bis-(1-methylmorpholinium)dodecane dibromide]	88 µM									MIC [2, 6]: 44 µM
C(CCCCCC[N+]12CCC(CC1)CC2)CCCCC[N+]12CCC(CC1)CC2 [1,12-Bis-(quinuclidinium)dodecane dibromide]	≥ 350 µM	250 μM = 0% 25 μM = 0% 2.5 μM = 0% 0.25 μM = 0%	250 μM = 0% 25 μM = 0% 2.5 μM = 0% 0.25 μM = 0%	250 μM = 0% 25 μM = 0% 2.5 μM = 0% 0.25 μM = 0%	250 μM = 0% 25 μM = 0% 2.5 μM = 0% 0.25 μM = 0%	0%	5%			Lyso assay (% inhibition) LPL ([3]; 0.25 μM): 250 μM = 0% 25 μM = 0% 2.5 μM = 0% 0.25 μM = 0%; Lyso assay (% inhibition) LPTA ([3]; 0.25 μM): 250 μM = 0% 25 μM = 0% 2.5 μM = 0% 0.25 μM = 0%; Lyso assay (% inhibition) LPL ([3]; 2.5 μM): 250 μM = 0% 25 μM = 0% 2.5 μM = 0% 0.25 μM = 0%; Lyso assay (% inhibition) LPTA ([3]; 2.5 μM): 250 μM = 0% 25 μM = 0% 2.5 μM = 0% 0.25 μM = 0%; PLB assay (% inhibition) ([4]; 0.25 μM): 0%; PLB assay (% inhibition) ([4]; 2.5 μM): 0%; MIC [2, 6]: 350 µM
CC[N+](CC)(CC)CCCCCCCCCCCC[N+](CC)(CC)CC [1,12-Bis-(triethylammonium)dodecane dibromide]										MIC ([1]; Candida albicans, ATCC10231, read-out: MIC (μM) C. alb. (10231)): 22 µM; MIC ([2]; Cryptococcus neoformans, ATCC90112, read-out: MIC (μM) Crypto. (ATCC 90112)): 11 µM
CCCCCC[N+](CCCCCC)(CCCCCC)CCCCCCCCCCCC[N+](CCCCCC)(CCCCCC)CCCCCC.[Cl-].[Cl-] [1,12-Bis-(trihexylammonium)dodecane dichloride]								8.8 µM	17.5 µM	
CC(C)C[N+](CCCCCCCCCCCC[N+](CC(C)C)(CC(C)C)CC(C)C)(CC(C)C)CC(C)C.[Br-].[Br-] [1,12-Bis-(triisobutylammonium)dodecane dibromide]		250 μM = 0% 25 μM = 0% 2.5 μM = n.d. 0.25 μM = n.d.	4%	250 μM = 0% 25 μM = 0% 2.5 μM = n.d. 0.25 μM = n.d.	5%	250 μM = 0% 25 μM = 0% 2.5 μM = n.d. 0.25 μM = n.d.	250 μM = 0% 25 μM = 0% 2.5 μM = n.d. 0.25 μM = n.d.			MIC (μM) C. alb. (10231) ([1]; Table 7): ≧350 μM; MIC (μM) Crypto. (ATCC 90112) ([2]; Table 7): ≧350 μM
CC(C)CC[N+](CCCCCCCCCCCC[N+](CCC(C)C)(CCC(C)C)CCC(C)C)(CCC(C)C)CCC(C)C.[Cl-].[Cl-] [1,12-Bis-(triisopentylammonium)dodecane dichloride]		250 μM = 11% 25 μM = 11% 2.5 μM = n.d. 0.25 μM = n.d.	0%	250 μM = 11% 25 μM = 11% 2.5 μM = n.d. 0.25 μM = n.d.	6%	68%	63%	2.2 µM	4.4 µM	PLB assay (% inhibition) ([4]; 0.25 μM): 0%; PLB assay (% inhibition) ([4]; 2.5 μM): 9%; PLB assay (% inhibition) ([4]; 6.7 μM): 38%; PLB assay (% inhibition) ([4]; 12.5 μM): 56%
CCCCCCCC[N+](CCCCCCCC)(CCCCCCCC)CCCCCCCCCCCC[N+](CCCCCCCC)(CCCCCCCC)CCCCCCCC.[Cl-].[Cl-] [1,12-Bis-(trioctylammonium)dodecane dichloride]								100 µM	35 µM	
CCCCC[N+](CCCCC)(CCCCC)CCCCCCCCCCCC[N+](CCCCC)(CCCCC)CCCCC.[Br-].[Br-] [1,12-Bis-(tripentylammonium)dodecane dibromide]		250 μM = 10% 25 μM = 10% 2.5 μM = n.d. 0.25 μM = n.d.	0%	250 μM = 10% 25 μM = 10% 2.5 μM = n.d. 0.25 μM = n.d.	2.4%	73%	63%	5.5 µM	5.5 µM	PLB assay (% inhibition) ([4]; 0.25 μM): 0%; PLB assay (% inhibition) ([4]; 2.5 μM): 12%
CC[N+](CC)(CC)CCOc1cccc(OCC[N+](CC)(CC)CC)c1OCC[N+](CC)(CC)CC [Gallamine triethiodide, reference compound]	≥ 350 µM									Haemolytic assay (%) (erythrocyte; 3.5 μM): 350 μM = 0% 175 μM = 0% 88 μM = 0% 35 μM = 0% 3.5 μM = 0%; Haemolytic assay (%) (erythrocyte; 35 μM): 350 μM = 0% 175 μM = 0% 88 μM = 0% 35 μM = 0% 3.5 μM = 0%; Haemolytic assay (%) (erythrocyte; 88 μM): 350 μM = 0% 175 μM = 0% 88 μM = 0% 35 μM = 0% 3.5 μM = 0%; Haemolytic assay (%) (erythrocyte; 175 μM): 350 μM = 0% 175 μM = 0% 88 μM = 0% 35 μM = 0% 3.5 μM = 0%; Haemolytic assay (%) (erythrocyte; 350 μM): 350 μM = 0% 175 μM = 0% 88 μM = 0% 35 μM = 0% 3.5 μM = 0%
C[N+]1(C)CCOC(O)(c2ccc(-c3ccc(C4(O)C[N+](C)(C)CCO4)cc3)cc2)C1 (stereo not drawn) [Hemicholinium dibromide, reference compound]	≥ 350 µM									Haemolytic assay (%) (erythrocyte; 3.5 μM): 350 μM = 0% 175 μM = 0% 88 μM = 0% 35 μM = 0% 3.5 μM = 0%; Haemolytic assay (%) (erythrocyte; 35 μM): 350 μM = 0% 175 μM = 0% 88 μM = 0% 35 μM = 0% 3.5 μM = 0%; Haemolytic assay (%) (erythrocyte; 88 μM): 350 μM = 0% 175 μM = 0% 88 μM = 0% 35 μM = 0% 3.5 μM = 0%; Haemolytic assay (%) (erythrocyte; 175 μM): 350 μM = 0% 175 μM = 0% 88 μM = 0% 35 μM = 0% 3.5 μM = 0%; Haemolytic assay (%) (erythrocyte; 350 μM): 350 μM = 0% 175 μM = 0% 88 μM = 0% 35 μM = 0% 3.5 μM = 0%
